Reference: patent publication US8299056B2 (Signal Pharmaceuticals, LLC, priority 2008, dated 2012)
Like-named read-outs stand apart in the source and are kept apart here.

Biological target: T1, Syk (Homo sapiens, UniProt P43405)
T1 construct: purchased Carna Biosciences
Test: Syk HTRF assay
Format: biochemical
Outline: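 Read-out is the 665 nm/615 nm time-resolved fluorescence ratio after EDTA stop and Eu-anti-phosphotyrosine plus streptavidin-DyLight 647 detection. Reaction ran 1 h at room temperature with start mix of 87.5 μM ATP and 80 nM substrate peptide in pH 7.6 HEPES/MgCl2 buffer.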

[1] = activity levels A-D, read-out: Activity Level (IC50 in the Syk HTRF assay)
[2] = read-out: Activity Level (Syk HTRF assay IC50)
[3] = IC50 activity level, read-out: Activity Level

SMILES | IC50 [1] [nM] | IC50 [2] [nM] | other results
c1ccc(-c2cccc3nc(Nc4ccc5ncccc5c4)nn23)cc1 [compound 59, N-(5-phenyl-[1,2,4]triazolo[1,5-a]pyridin-2-yl)quinolin-6-amine] | – | 0.005 to 250 | –
OC1CCN(c2ccc(Nc3nc4cccc(N[C@H]5CC[C@@H](O)CC5)n4n3)cn2)CC1 [Example 294, cis-1-(5-(5-(4-hydroxycyclohexylamino)-[1,2,4]triazolo[1,5-a]pyridin-2-ylamino)pyridin-2-yl)piperidin-4-ol] | 0.005 to 250 | – | –
CC1(C)C(=O)Nc2cc(Nc3nc4cccc(N[C@H]5CC[C@@H](O)CC5)n4n3)ccc21 [Example 202, cis-6-(5-(4-hydroxycyclohexylamino)-[1,2,4]triazolo[1,5-a]pyridin-2-ylamino)-3,3-dimethylindolin-2-one] | 0.005 to 250 | – | –
NCCn1cnc2cc(-c3cccc4nc(Nc5ccccc5)nn34)ccc21 [Example 490, 5-(1-(2-aminoethyl)-1H-benzo[d]imidazol-5-yl)-N-phenyl-[1,2,4]triazolo[1,5-a]pyridin-2-amine] | – | – | IC50 [3]: 1000 to 10000 nM
CNC(=O)c1ccc(Nc2nc3cccc(O[C@H]4CC[C@@H](N)CC4)n3n2)cc1 [Example 283, cis-4-(5-(4-aminocyclohexyloxy)-[1,2,4]triazolo[1,5-a]pyridin-2-ylamino)-N-methylbenzamide] | 1000 to 10000 | – | –
OCc1nc2ccc(Nc3nc4cccc(N[C@H]5CC[C@@H](O)CC5)n4n3)cc2[nH]1 [Example 195, cis-4-(2-(2-(hydroxymethyl)-1H-benzo[d]imidazol-6-ylamino)-[1,2,4]triazolo[1,5-a]pyridin-5-ylamino)cyclohexanol] | – | 0.005 to 250 | –
COc1ccc(Nc2nc3cccc(-c4ccc5nc(CO)[nH]c5c4)n3n2)cn1 [Example 280, (6-(2-(6-methoxypyridin-3-ylamino)-[1,2,4]triazolo[1,5-a]pyridin-5-yl)-1H-benzo[d]imidazol-2-yl)methanol] | 250 to 500 | – | –
N#Cc1cccc(Nc2nc3cccc(N[C@H]4CC[C@@H](O)CC4)n3n2)c1 [Example 348, cis-3-(5-(4-hydroxycyclohexylamino)-[1,2,4]triazolo[1,5-a]pyridin-2-ylamino)benzonitrile] | 250 to 500 | – | –
CC1(C)C(=O)Nc2cc(Nc3nc4cccc(CC5CCNCC5)n4n3)ccc21 [Example 138, 3,3-dimethyl-6-(5-(piperidin-4-ylmethyl)-[1,2,4]triazolo[1,5-a]pyridin-2-ylamino)indolin-2-one] | – | 0.005 to 250 | –
CN(C)c1cc(-c2cccc3nc(Nc4ccccc4)nn23)ccn1 [Example 446, 5-(2-(dimethylamino)pyridin-4-yl)-N-phenyl-[1,2,4]triazolo[1,5-a]pyridin-2-amine] | – | – | IC50 [3]: 250 to 500 nM
NC(=O)c1cc(Nc2nc3cccc(-c4ccccc4)n3n2)ccc1F [compound 65, 2-fluoro-5-(5-phenyl-[1,2,4]triazolo[1,5-a]pyridin-2-ylamino)benzamide] | – | 1000 to 10000 | –
CNC(=O)c1ccc(Nc2nc3cccc(NC4CCOC4)n3n2)cc1 (stereo not shown) [Example 441, N-methyl-4-(5-(tetrahydrofuran-3-ylamino)-[1,2,4]triazolo[1,5-a]pyridin-2-ylamino)benzamide] | – | – | IC50 [3]: 1000 to 10000 nM
N#Cc1cccc(Nc2nc3cccc(-c4ccccc4)n3n2)c1 [compound 66, 3-(5-phenyl-[1,2,4]triazolo[1,5-a]pyridin-2-ylamino)benzonitrile] | – | 1000 to 10000 | –
CN(c1cccc2nc(Nc3ccc4c(c3)NC(=O)C4(C)C)nn12)C1CCOC1 (stereo in doubt) [compound 121, (S)-3,3-dimethyl-6-(5-(methyl(tetrahydrofuran-3-yl)amino)-[1,2,4]triazolo[1,5-a]pyridin-2-ylamino)indolin-2-one] | – | 0.005 to 250 | –
Cc1cc(Nc2nc3cccc(NC4CCOCC4)n3n2)cc2c1C(C)(C)C(=O)N2 [compound 125, 3,3,4-trimethyl-6-(5-(tetrahydro-2H-pyran-4-ylamino)-[1,2,4]triazolo[1,5-a]pyridin-2-ylamino)indolin-2-one] | – | 0.005 to 250 | –
Cc1n[nH]c2cc(Nc3nc4cccc(NC[C@@H]5CCC(O)C5)n4n3)ccc12 (stereo in doubt) [Example 179, (1R,3R)-3-((2-(3-methyl-1H-indazol-6-ylamino)-[1,2,4]triazolo[1,5-a]pyridin-5-ylamino)methyl)cyclopentanol] | – | 0.005 to 250 | –
N#Cc1ccc(-c2cccc3nc(Nc4ccccc4)nn23)cc1 [compound 76, 4-(2-(phenylamino)-[1,2,4]triazolo[1,5-a]pyridin-5-yl)benzonitrile] | – | 1000 to 10000 | –
O[C@H]1CC[C@@H](Nc2cccc3nc(Nc4ccccn4)nn23)CC1 [Example 349, cis-4-(2-(pyridin-2-ylamino)-[1,2,4]triazolo[1,5-a]pyridin-5-ylamino)cyclohexanol] | 1000 to 10000 | – | –
NCCN1Cc2ccc(-c3cccc4nc(Nc5ccccc5)nn34)cc2C1=O [Example 495, 2-(2-aminoethyl)-6-(2-(phenylamino)-[1,2,4]triazolo[1,5-a]pyridin-5-yl)isoindolin-1-one] | – | – | IC50 [3]: 1000 to 10000 nM
CC(=O)Nc1cccc2nc(Nc3ccccc3)nn12 [Example 527, N-(2-(phenylamino)-[1,2,4]triazolo[1,5-a]pyridin-5-yl)acetamide] | – | – | IC50 [3]: 500 to 1000 nM

The next lines start with results.

IC50 [1] [nM] | IC50 [2] [nM] | SMILES | other results
0.005 to 250 | – | Cc1ccc(Nc2nc3cccc(N[C@H]4CC[C@@H](O)CC4)n3n2)cc1 [Example 343, cis-4-(2-(p-tolylamino)-[1,2,4]triazolo[1,5-a]pyridin-5-ylamino)cyclohexanol] | –
0.005 to 250 | – | CC1C(=O)NCCN1Cc1cccc2nc(Nc3ccc(C(F)(F)F)cc3)nn12 (stereo in doubt) [Example 275, (S)-3-methyl-4-((2-(4-(trifluoromethyl)phenylamino)-[1,2,4]triazolo[1,5-a]pyridin-5-yl)methyl)piperazin-2-one] | –
– | 1000 to 10000 | CNC(=O)c1ccc(Nc2nc3cccc(-c4ccccc4Cl)n3n2)cc1 [compound 22, 4-(5-(2-chlorophenyl)-[1,2,4]triazolo[1,5-a]pyridin-2-ylamino)-N-methylbenzamide] | –
500 to 1000 | – | CNC(=O)c1ccc(Nc2nc3cccc(N[C@H]4CC[C@@H](N)CC4)n3n2)cc1 [Example 360, 4-(5-(cis-4-aminocyclohexylamino)-[1,2,4]triazolo[1,5-a]pyridin-2-ylamino)-N-methylbenzamide] | –
1000 to 10000 | – | CC(C)(CO)Nc1cccc2nc(Nc3ccc(C(F)(F)F)cc3)nn12 [Example 358, 2-methyl-2-(2-(4-(trifluoromethyl)phenylamino)-[1,2,4]triazolo[1,5-a]pyridin-5-ylamino)propan-1-ol] | –
1000 to 10000 | – | OCC1CCCN(Cc2cccc3nc(Nc4ccc(C(F)(F)F)cc4)nn23)C1 (stereo not shown) [Example 273, (1-((2-(4-(trifluoromethyl)phenylamino)-[1,2,4]triazolo[1,5-a]pyridin-5-yl)methyl)piperidin-3-yl)methanol] | –
1000 to 10000 | – | O[C@H]1CCN(Cc2cccc3nc(Nc4ccc(C(F)(F)F)cc4)nn23)C1 [Example 336, (S)-1-((2-(4-(trifluoromethyl)phenylamino)-[1,2,4]triazolo[1,5-a]pyridin-5-yl)methyl)pyrrolidin-3-ol] | –
250 to 500 | – | OC[C@@H]1CCN(c2cccc3nc(Nc4ccc(C(F)(F)F)cc4)nn23)C1 [Example 326, (R)-(1-(2-(4-(trifluoromethyl)phenylamino)-[1,2,4]triazolo[1,5-a]pyridin-5-yl)pyrrolidin-3-yl)methanol] | –
